{
  "source": "patent US20170326154A1",
  "about": "“Pre-Operative Composition for Sedation or Analgesia” (priority 2016, published 2017)",
  "origin": "cited, not measured here",
  "key": {"[1]": {"details": "basic drug, nitrogen atom in the imidazole ring"}},
  "note": "Read-outs that look alike come from different tables or passages of the source.",
  "data": [
    {"compound": "Cc1ncc2n1-c1ccc(Cl)cc1C(c1ccccc1F)=NC2", "note": "[Midazolam, 8-chloro-6-(2′-fluorophenyl)-1-methyl-4H-imidazo[1,5-a][1,4]-benzodiazepine]", "values": [
      {"measurement": "pKa value", "setting": "[1]", "result": "5.5 and 6.2"},
      {"measurement": "adequate sedation within (time)", "setting": "intranasal administration", "result": "10 to 15", "unit": "min"},
      {"measurement": "adequate sedation within (time)", "setting": "oral administration", "result": "10 to 20", "unit": "min"}
    ]}
  ]
}
